Measurements taken from patent US20230035892A1, “METHODS AND COMPOSITIONS FOR TREATING CANCER” (Flagship Pioneering Innovations V, Inc., priority 2019, published 2023).

Key:
Assay type in all cases: cell-based
[1] = test system: PAXF1657 control empty vector; assay: 7-day CellTiter-Glo anti-proliferative assay; settings: PAXF1657, sgNTC, pReceiver-empty vector, 5 or 10 point dose curve
Method: (§1) Cell lines were seeded into tissue culture treated, white-walled, 96-well plates at a density of 500 cells/well in RPM11640 media supplemented with 10% H.I. FBS and penicillin/streptomycin. Plates were incubated overnight at 37° C., 5% CO2 to allow cells to adhere to the wells. GRK2 small molecule antagonists were added to the cells using a ten-point or five-point dilution series with a final concentration ranging from […] in 0.1% DMSO. At the time of compound addition, a set of plates that were not treated with compounds were collected and cell viability was measured using CellTiter-Glo (Promega). CellTiter-Glo reagent was added to the plates and luminescence was measured using a Biotek Synergy plate reader. The compound treated cells were incubated for 3 days at 37° C., 5% CO2. The media was then aspirated from each well and replaced with fresh media containing GRK2 small molecule antagonists. The compound treated cells were then incubated for another 4 days at 37° C., 5% CO2 and cell viability was assessed at the end of the 7-day compound treatment by CellTiterGlo.

[2] = test system: PAXF1657 stably overexpressing GRK2 cDNA; assay: 7-day CellTiter-Glo anti-proliferative assay; settings: PAXF1657, sgNTC, pReceiver-GRK2, 5 or 10 point dose curve
Method: as §1

[3] = test system: sgGrk2-expressing PAXF1657 cells; assay: Colony formation assay in sgGrk2-expressing cells (target specificity)
Method: (§2) To assess the target specificity of the GRK2 small molecule antagonist of Formula III-26, sgGRK2-expressing cells were treated with the compound of Formula III-26. If GRK2 knockout is complete and the compound of Formula III-26 inhibits only GRK2, the addition of the compound of Formula III-26 should not induce any additional growth defect compared to sgRNA KO alone. […] This is potentially due to the lower GRK2 knockout efficiency that can be achieved in PAXF1657 compared to Miapaca2, as shown in Table 16.

[4] = test system: sgGrk2-expressing Miapaca2 cells; assay: as above; settings: Miapaca
Method: as §2

[5] = 168 h, read-out: Maximum % Growth inhibition relative to DMSO, geometric mean
[6] = PAXF1657, 1 μM, sgGRK2-2 (SEQ ID NO: 3)
[7] = PAXF1657, 1 μM, sgGRK2-3 (SEQ ID NO: 4)
[8] = PAXF1657, 3 μM, sgGRK2-2 (SEQ ID NO: 3)
[9] = PAXF1657, 3 μM, sgGRK2-3 (SEQ ID NO: 4)

## Cn1c(CNc2cccc(C(=O)NCc3ccccc3C(F)(F)F)c2)nnc1-c1ccncc1 [Compound of Formula III-26]
[1]; [5]
  Emax: 61%
[1]; read-out: GI50, geometric mean
  GI50: 9.49 µM
[2]; [5]
  Emax: 24.8%
[2]; read-out: GI50, geometric mean
  GI50: > 10 µM
[3]; [6]
  Difference between rel +dox and −dox signal: 0.45
  Rel +dox: 0.44
  Rel −dox: 0.89
[3]; [7]
  Difference between rel +dox and −dox signal: 0.37
  Rel +dox: 0.40
  Rel −dox: 0.78
[3]; PAXF1657, 1 μM, sgGRK2-pooled
  Difference between rel +dox and −dox signal: 0.29
  Rel +dox: 0.49
  Rel −dox: 0.78
[3]; PAXF1657, 1 μM, sgNTC
  Difference between rel +dox and −dox signal: −0.04
  Rel +dox: 0.78
  Rel −dox: 0.73
[3]; [8]
  Difference between rel +dox and −dox signal: 0.26
  Rel +dox: 0.41
  Rel −dox: 0.67
[3]; [9]
  Difference between rel +dox and −dox signal: 0.32
  Rel +dox: 0.22
  Rel −dox: 0.55
[3]; PAXF1657, 3 μM, sgGRK2-pooled
  Difference between rel +dox and −dox signal: 0.11
  Rel +dox: 0.48
  Rel −dox: 0.59
[3]; PAXF1657, 3 μM, sgNTC
  Difference between rel +dox and −dox signal: 0.01
  Rel +dox: 0.56
  Rel −dox: 0.57
[4]; 1 μM, sgGRK2-pooled
  Difference between rel +dox and −dox signal: 0.00
  Rel +dox: 0.76
  Rel −dox: 0.75
[4]; 1 μM, sgNTC
  Difference between rel +dox and −dox signal: 0.05
  Rel +dox: 0.77
  Rel −dox: 0.81
[4]; 3 μM, sgGRK2-pooled
  Difference between rel +dox and −dox signal: 0.04
  Rel +dox: 0.43
  Rel −dox: 0.47
[4]; 3 μM, sgNTC
  Difference between rel +dox and −dox signal: 0.12
  Rel +dox: 0.53
  Rel −dox: 0.65
